Source: patent publication US9868715B2 (THE BOARD OF REGENTS OF THE UNIVERSITY OF TEXAS SYSTEMS, priority 2014, dated 2018)

Columns and labels:
[1] = system: transformed PSC (human pancreatic stellate cells); assay: PSC proliferation, AlamarBlue Cell Viability Assay; type: cell-based; conditions: for inhibition at 5 µM / inhibition at 10 µM / inhibition at 20 µM: Homo sapiens, mean of at least three independent experiments, NE = No effect, read-out: Inhibitory Effect (%) on PSC proliferation; for IC50: human PSC, 24 h, mean±SEM of at least three experiments, read-out: IC50, inhibition of PSC proliferation; for IC50 / Antiproliferative effect on PSC, result in words: AlamarBlue; for Antiproliferative effect on PSC, result in words: transformed PSC
Experimental: The calculated lipophilicity (cLogP) and topological polar surface area (tPSA) values of synthesized analogues are listed in Table 1. […] AlamarBlue is a non-toxic reagent that is converted to a highly fluorescent end product by viable cells.
Under an IRB-approved tissue protocol, discarded human resected pancreatic tissue (500 mm^3) was attained fresh from the operating room at the University of Texas Medical Branch. The tissue was minced and plated on a collagen-coated flask (15 μg/mL, Invitrogen) with DMEM (VWR; Radnor, Pa.) supplemented with penicillin 200 U/mL, streptomycin 200 μg/mL, amphotericin B 0.25 μg/mL and gentimicin 50 μg/mL (Invitrogen, Carlsbad Calif.), 10% fetal bovine serum (Lonza, Walkersville, Md.), 1% insulin-transferrin, selenium-ethanolamine (Gibco, Grand Island, N.Y.), and 1% non-essential amino acids (Sigma-Aldrich, St. Louis, Mo.). The human PSC were isolated by the outgrowth method.^41-43 The purity of PSC culture was confirmed by immunohistochemical staining for vimentin, α-smooth muscle actin, glial fibrillar acidic protein, or Oil red O staining. Primary PSC were transformed and immortalized for use in experiments using lentiviral vectors containing SV40 Large T antigen and human telomerase (plasmid #12245 and 12246; Addgene, Cambridge, Mass.). Cultures were maintained in DMEM with 10% FBS, at 37° C. in a humidified 95% O2/5% CO2 atmosphere.
Cell proliferation assay. Transformed PSC (3×10^3) were plated in 96-well plates, in sextuplicate. […] AlamarBlue reagent (10% sample volume, DAL1025) was added to each well per Invitrogen's protocol. Fluorescence was recorded using excitation/emission wavelengths of 544/590 nm and the SpectraMax M2 Microplate Reader (Molecular Devices, Sunnyvale Calif.).
Statistical analysis. Dose-response curves were generated by plotting fluorescence or absorbance versus log (compound concentration). A best-fit curve was created using nonlinear regression, and the IC50 or EC50 determined from the graph (GraphPad Prism 5; GraphPad Software Inc., La Jolla, Calif.). To analyze continuos variables, unpaired student t-tests and one-way ANOVA with Tukey-Kramer multiple comparisons post-test (GraphPad Prism 5). Significance was set at p<0.05.

[2] = system: transformed PSC (human pancreatic stellate cells); assay: PSC apoptosis, Cell Death Detection ELISA PLUS assay; type: cell-based; conditions: 14 h; for EC50: mean±SEM of at least three experiments
Experimental: These two representative analogues were also investigated to determine whether the growth inhibition induced by compounds 23 and 24 in PSC was attributed to apoptosis. Apoptosis was determined using the Cell Death Detection ELISA^PLUS assay. This sandwich-enzyme-immunoassay involved antibodies binding to cytoplasmic nucleosomes, which were specific to the process of apoptosis rather than necrosis. […] Next, the dose-response curve was generated (FIG. 3B). The EC50 represented the concentration at which the compound yielded half of the maximal amount of cell death. […] The capacity of the compounds to induce cell death in activated PSC would most likely translate into reduced fibrosis in CP. […] Under an IRB-approved tissue protocol, discarded human resected pancreatic tissue (500 mm^3) was attained fresh from the operating room at the University of Texas Medical Branch. The tissue was minced and plated on a collagen-coated flask (15 μg/mL, Invitrogen) with DMEM (VWR; Radnor, Pa.) supplemented with penicillin 200 U/mL, streptomycin 200 μg/mL, amphotericin B 0.25 μg/mL and gentimicin 50 μg/mL (Invitrogen, Carlsbad Calif.), 10% fetal bovine serum (Lonza, Walkersville, Md.), 1% insulin-transferrin, selenium-ethanolamine (Gibco, Grand Island, N.Y.), and 1% non-essential amino acids (Sigma-Aldrich, St. Louis, Mo.). The human PSC were isolated by the outgrowth method.^41-43 The purity of PSC culture was confirmed by immunohistochemical staining for vimentin, α-smooth muscle actin, glial fibrillar acidic protein, or Oil red O staining. Primary PSC were transformed and immortalized for use in experiments using lentiviral vectors containing SV40 Large T antigen and human telomerase (plasmid #12245 and 12246; Addgene, Cambridge, Mass.). Cultures were maintained in DMEM with 10% FBS, at 37° C. in a humidified […] atmosphere. Cell death assay. Transformed PSC (8×10^3) were plated in 96-well plates in triplicate. […] The Cell Death Detection ELISA^PLUS assay (Roche Applied Science, Indianapolis, Ind.) was used and protocol followed (Version 11.0). Absorbance was measured at 405 nm, using the EL×800 Automated Microplate Reader (Bio-TEK Instruments, Inc., Winooski, Vt.). Statistical analysis. Dose-response curves were generated by plotting fluorescence or absorbance versus log (compound concentration). A best-fit curve was created using nonlinear regression, and the IC50 or EC50 determined from the graph (GraphPad Prism 5; GraphPad Software Inc., La Jolla, Calif.). To analyze continuos variables, unpaired student t-tests and one-way ANOVA with Tukey-Kramer multiple comparisons post-test (GraphPad Prism 5). Significance was set at p<0.05.

[3] = Aqueous solubility by HPLC analysis method; type: physicochemical; conditions: in the form of HCl salt

| Aqueous solubility compared with apigenin, result in words [3] | Aqueous solubility, saturated concentration [3] | SMILES | inhibition at 5 µM [1] | inhibition at 10 µM [1] | inhibition at 20 µM [1] | IC50 [1] | Antiproliferative effect on PSC, result in words [1] | Concentrations inducing stellate cell toxicity [2] | EC50 [2] |
| --- | --- | --- | --- | --- | --- | --- | --- | --- | --- |
| significantly improved solubility | 84.1 mg/mL | COc1cc(OC)c2c(=O)cc(-c3ccc(OCC(O)CN4CCCCC4)cc3)oc2c1 (centres unmarked) [Compound 24, 2-(4-(2-Hydroxy-3-piperidin-1-yl-propoxy)phenyl)-5,7-dimethoxy-chromen-4-one] | 34% | 65% | 95% | 8 ± 1.8 µM | potent antiproliferative effects | greater than 25 μM | 35.2 ± 5.5 µM |
| – | – | O=c1cc(-c2ccc(O)cc2)oc2cc(O)cc(O)c12 [Apigenin, 4′,5,7-trihydroxyflavone, reference compound] | 11% | 34% | 64% | 18.6 ± 1.6 µM | – | – | 24.5 ± 2.5 µM |
| – | – | COc1cc(OC)c2c(=O)cc(-c3ccc(OCC4CO4)cc3)oc2c1 (centres unmarked) [Compound 23, 5,7-Dimethoxy-2-(4-oxiranylmethoxyphenyl)-chromen-4-one] | 69% | 89% | 93% | 2.5 ± 0.6 µM | highly potent inhibitor suppressing PSC proliferation | – | 9.6 ± 1.8 µM |
